Source: paper PMC7898615 (Chemistry (Weinheim an Der Bergstrasse, Germany), 2020)

These compounds were tested against T1, tryptophan synthase (TS) complex, TrpA:TrpB (Salmonella enterica, UniProt P0A2K1) (assay: coupled VioA/HRP assay of Trp formation, […] nm, global fit).
T1 sequence (P0A2K1 1-397): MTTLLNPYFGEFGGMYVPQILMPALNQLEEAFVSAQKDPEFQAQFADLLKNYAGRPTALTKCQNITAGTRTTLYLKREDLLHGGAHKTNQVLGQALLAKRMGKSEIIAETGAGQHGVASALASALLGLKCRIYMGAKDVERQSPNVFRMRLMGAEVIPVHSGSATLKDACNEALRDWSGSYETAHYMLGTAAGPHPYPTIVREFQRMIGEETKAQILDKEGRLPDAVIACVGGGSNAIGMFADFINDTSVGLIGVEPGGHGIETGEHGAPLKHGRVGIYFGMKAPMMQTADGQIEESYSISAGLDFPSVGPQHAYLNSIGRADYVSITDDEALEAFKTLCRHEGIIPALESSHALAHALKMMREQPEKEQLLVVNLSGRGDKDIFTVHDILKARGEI
T1 sequence (P00929 1-268 partner): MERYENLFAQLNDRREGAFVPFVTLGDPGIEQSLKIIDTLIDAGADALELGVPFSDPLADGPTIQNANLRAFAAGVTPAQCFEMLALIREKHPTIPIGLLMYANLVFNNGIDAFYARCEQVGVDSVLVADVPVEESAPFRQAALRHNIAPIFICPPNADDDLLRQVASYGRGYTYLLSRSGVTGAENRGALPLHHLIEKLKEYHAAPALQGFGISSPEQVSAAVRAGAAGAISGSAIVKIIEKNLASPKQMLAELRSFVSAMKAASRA
Assay type: biochemical
`O=C(NCCCCOP(=O)(O)O)c1ccc(/N=N/c2ccccc2)cc1` [4d, (E)‐4‐(4‐(phenyldiazenyl)benzamido)butyl dihydrogen phosphate] was tested, and the Ki was 640 ± 80 µM. `O=C(NCCCCCOP(=O)(O)O)c1ccc(/N=N/c2ccccc2)cc1` [4e, (E)‐5‐(4‐(phenyldiazenyl)benzamido)pentyl dihydrogen phosphate] showed a Ki of 180 ± 40 µM. In the case of `O=C(NCCCCCOP(=O)(O)O)c1ccc(/N=N\c2ccccc2)cc1` [4e, 4 e (Z isomer)], the Ki is reported as 930 ± 420 µM. `O=C(NCCCCCCOP(=O)(O)O)c1ccc(/N=N/c2ccccc2)cc1` [4f, (E)‐6‐(4‐(phenyldiazenyl)benzamido)hexyl dihydrogenphosphate] gave a Ki of 50 µM. Compound `O=C(NCCCCCCOP(=O)(O)O)c1ccc(/N=N\c2ccccc2)cc1` [4f, 4 f (Z isomer)] has a Ki of 100 ± 10 µM. With `O=C(NCCCCOP(=O)(O)O)c1ccc(/N=N\c2ccccc2)cc1` [4d, 4 d (Z isomer)] the Ki was greater than 4000 µM.
